The values that follow come from US8097728B2, “Iminosugar compounds with antiflavirus activity” (Philadelphia Health & Education Corporation, priority 2007, dated 2012).

Like-named read-outs stand apart in the source and are kept apart here. A value given as a limit tells only on which side of the number the result lay.

Series [1] relates to WNV. Description: WNV yield reduction assay in BHK cells. How it is done: Cells and viruses. BVDV-free MDBK cells (CCL 22) were obtained from the American Type Culture Collection and propagated in DMEM/F12 essential medium supplemented with penicillin (500 U/ml), streptomycin (500 U/ml), and 10% heat inactivated horse serum (Invitrogen). Cells were maintained in a humidified incubator at 37° C. with 5% CO2. BVDV (NADL strain) was obtained from Dr. Rubin Donis (Univ. of Nebraska-Lincoln). For infections, virus inoculum was added in complete medium and adsorbed for 1 h at 37° C., the inoculum was then removed, the cells washed once with medium and fresh medium containing compounds added. Virus stocks were prepared by freeze-thawing the infected cells and culture supernatant three times followed by centrifugation at 1,000 g for 5 min. Stock titers were determined, and stocks were aliquoted and stored at −80° C. WNV was obtained from a cDNA clone of a human 2002 isolate from Texas (Rossi et al., 2005); virus obtained from BHK cells electroporated with the in vitro synthesized RNA from this cDNA clone was passaged in Vero cells before use in antiviral assays. Dengue virus (DV) serotype 2 was a New Guinea C virus that had been passaged 28 times in suckling mouse brain, twice in Vero cells, and once in C6/36 mosquito cells.
WNV and DV Yield Reduction assay: Antiviral activity against WNV was evaluated in a yield reduction assay. Briefly, BHK cells were plated in 96-well plates at a concentration of 2.5×10^4 cells/well. 24 hours after plating, the cells were infected with WNV at an MOI of 0.05. After 1 hour the inoculum was aspirated and the cells re-fed with fresh DMEM containing dilutions of the test compounds. Plates were then incubated at 37° C. for 48 hours, the supernatant collected and the WNV produced titered. For virus titration, Vero cells were plated in 96-well plates at 8.0×10^3 cells/well and incubated overnight. The Vero cell monolayers were then infected for 1 hour with various dilutions of the WNV supernatant, overlaid with media containing 0.6% tragacanth (ICN, CA) and incubated at 37° C. for 24-30 hours. The culture media was then aspirated; the plate was rinsed, air-dried, and fixed with 50 ul/well acetone/methanol (50:50). Viral foci were detected for enumeration by immunostaining as described previously (Rossi et al., 2005). For antiviral testing against DV, DV serotype 2, drug incubations and titrations were performed essentially as described for WNV, except that the virus was harvested from drug-treated cultures 72 hrs after infection, and foci were stained using hybridoma culture fluid harvested from monoclonal antibody-producing hybridoma clone D1-4G2 (Gentry et al., 1982) following 3 days of incubation on Vero cells under the tragacanth overlay.
For this purpose, BHK cells were infected with WNV at an moi of 0.05, and incubated in either the absence or presence of various concentrations of N-butylcyclohexyl-DNJ (SP169) and N-propylcyclohexyl-DNJ (SP173). After three days, the amount of progeny virus produced was determined by plaque assays on indicator Vero cells.

Series [2] is described as follows: MTT compound toxicity assay on BHK cells. It counts as cell-based. To be noted: hamster; WNV (BHK); MTT, 50% reduction relative to DMSO. Here is the method: (§1) Compound toxicity assay. Compound cytotoxicity was assessed by using an MTT based toxicity assay kit (Sigma, St. Louis, Mo.) as described elsewhere (Gu et al., 2006). Briefly, cells cultured under conditions identical to those used in the viral assay were incubated with various concentrations of the compound for 72 hours. MTT was added to the media to a final concentration of 0.5 mg/ml and was incubated for 3 hours at 37 C. After the culture media was removed, formazan crystals was dissolved by adding 150 ul of solubilization solution (10% Triton X-100, 0.1 N HCl in anhydrous isopropanol) for 15-30 minutes. The absorbance of the dissolved formazan was measured spectrophotometrically at 570 nm with absorbance at 690 nm as background.

In series [3] the test system is DV serotype 2. The experiment in a line: DV yield reduction assay in BHK cells. It counts as cell-based, Dengue virus (DV) serotype 2. How it is done: In the DV infection assay, a serotype 2 DV was used to infect BHK cells in the presence or absence of testing compounds and viruses produced after 72 hours were titered in a manner similar to the WNV assay. In this experiment, N-butylcyclohexyl-DNJ (SP169), N-pentyl(1-hydroxylcyclohexyl)-DNJ (OSL-95II), […] and N-propylcyclohexyl-DNJ (SP173) were compared with NNDNJ (Wu et al., 2002) and castanospermine. […] All compounds had no toxicity at the highest concentrations used in this experiment (FIG. 5B, Table 1).

Series [4] concerns HBV. Description: HBV antigen assay: LHBs and MHBs secreted by HepG2.2.15 cells, immunoblot. It counts as cell-based, Hepatitis B virus. Conditions: 7 days. How it is done: MHBs and LHBs are HBV envelope proteins that are sensitive to glucosidase inhibition and inhibition of these important viral glycoproteins serves as a surrogate for HBV growth. […] To assess the activity of this compound in the context of viral replication, HepG2 2.2.15 cells were incubated with the indicated DNJ derived compound. HepG 2.2.15 cells secrete readily detectable amounts of MHBs and LHBs into the culture medium. After 7 days of incubation, the amount of HBV M and L in the culture medium was determined by western blot. […] The nature of the selective antiviral activity is not known, but may be due to cell specific activity since HBV is studied in human liver derived hepatoblastoma HepG2 cells and BVDV and WNV were studied in MDBK and BHK cells, respectively.
HBV antigen assay: Antiviral activity against HBV was determined using HepG2.2.15 cells, which contain a dimer of the HBV genome and express all viral gene products, including envelope glycoproteins (Sells, Chen, and Acs, 1987). Briefly, HepG2.2.15 cells were seeded in 24 well trays, and allowed to grow to confluence prior to addition of drug, as described previously (Simsek et al., 2005). After seven days of treatment, supernatants were harvested and assayed for the presence of the Large Hepatitis B (LHBs) and middle Hepatitis B (MHBs) glycoproteins by electrophoresis through 12% polyacrylamide gels and immunoblotting with a polyclonal antibody that recognizes the pre-S2 region of the LHBs and MHBs proteins (Research Diagnostics Inc., Flanders, N.J.) as described (Simsek et al., 2005). Quantitation was performed using AlphaEase software (Alphalnnotech).

In series [5] the test system is BVDV. Description: BVDV single cycle virus yield reduction assay in MDBK cells. It counts as cell-based, Bovine Viral Diarrhea virus (NADL strain). Conditions: for antiviral activity against BVDV (in words): MDBK cells, virus yield reduction, FIG. 2C / 4C; for SI (Selective Index, CC50/IC50) / IC50: BVDV (MDBK); for IC50: concentration reducing plaque number by 50% relative to DMSO, read-out: IC50. How it is done:
BVDV antiviral and plaque assays. To evaluate antiviral activity against BVDV, a single cycle virus yield reduction assay was performed in the presence of various concentrations of the test compounds. Specifically, 2×10^5 MDBK cells/well were plated in 24 well plates. Twenty-four hours later, the cells were infected with BVDV at a multiplicity of infection (moi) of 0.5 PFU/cell in 100 ul complete media. After adsorption for 1 h at 37° C., the inoculum was removed, and cells were washed with media before media containing vehicle or various concentrations of each compound was added. At 22 hour post infection, both cell and media were collected and freeze-thawed three times before the virus was titered. For BVDV virus titer determination, 10^−2, 10^−3, and 10^−4 dilutions of virus were inoculated onto MDBK cells as described previously (Gu et al., 2000; Jordan et al., 2002). After absorption and washing the cells were overlaid with medium containing methylcellulose or soft agar and incubated at 37° C. for 3 days or until plaques were visible. Plaques were counted directly under the microscope or after staining with crystal violet in 70% methanol for 15 min.
(§2) The anti-viral activity of this family of compounds against BVDV was then determined by a single cycle viral yield reduction assay in Madin Darby Bovine Kidney (MDBK) cells where the compounds are incubated with cells for 20 hours during the period of infection. Yields of virus were then determined by plaque assay on new MDBK cell monolayers. Compound toxicity was measured by MTT assay and the CC50 determined as the concentration of compound producing 50% reduction in absorption readings. […] This is consistent with previous findings in which oxygenation and methoxylation of side chains emanating from the ring nitrogen were less toxic in tissue culture and in animals than straight chain alkylated DNJs (Mehta et al., 2002b).

Series [6] has as its system MDBK cells. The experiment in a line: MTT compound toxicity assay on MDBK cells. It counts as cell-based, Bovine. To be noted: 72 hours; for CC50: BVDV (MDBK), concentration reducing MTT values (570 nm) by 50% relative to DMSO. Here is the method:
as §1, §2

In series [7] the test system is BHK cells. The experiment in a line: MTT compound toxicity assay on BHK cells. It counts as cell-based. To be noted: for CC50: WNV (BHK), MTT, 50% reduction relative to DMSO. How it is done:
as §1

Series [8] is described as follows: MTT compound toxicity assay on MDBK cells. It counts as cell-based, Bovine. To be noted: bovine, MDBK cells, MTT, text to FIG. 2B / 4B. How it is done: as §1, §2
On the technique in general: Tetrazolium assays rely on reduction of a dye to a coloured formazan, in cell work by metabolically active cells.

Where [9] appears, read: WNV (BHK), plaque number reduced by 50% relative to DMSO, 48 hours.

With `O[C@H]1[C@H](O)[C@@H](O)CN2CC[C@H](O)[C@H]12` [CAST, Castanospermine, reference compound], the IC50 in series [1] (West Nile virus, BHK, 48 h) is > 20 µM; in series [3] (Dengue virus, BHK, 72 h), 6 µM; in series [3] (Dengue virus, BHK, 72 h, read-out: IC50 against DV), 6 µM. The selectivity ratio at 48 h in series [1] (hamster) came out at 5. For the same compound, the “antiviral activity against WNV (in words)” value in series [1] (highest concentration tested (20 uM)) is on record as “no significant activity”. Also, the CC50 (as a rule, the concentration giving 50% cytotoxicity) at 72 h in series [2] is > 100 µM. Moreover, in series [3] (hamster, DV (BHK), read-out: SI (Selective Index, CC50/IC50)), the selectivity ratio at 72 h was > 17.

Consider `Nc1ccn([C@@H]2CS[C@H](CO)O2)c(=O)n1` [Compound 3TC, reference compound], for which the “reduction of MHBs and LHBs in culture medium (in words)” value in series [4] (3TC 1 ug/ml, FIG. 6B) is given as “little effect”.

Turning to `CCOCCCCCN1C[C@H](O)[C@@H](O)[C@H](O)[C@H]1CO` [Compound 6-08, 6′-oxaoctyl-DNJ], the “antiviral activity against BVDV (in words)” value in series [5] is reported as “retained the best antiviral activity of the series”.

`CCCCCCCCCN1C[C@H](O)[C@@H](O)[C@H](O)[C@H]1CO` [NNDNJ, N-nonyl-DNJ, reference compound]: the “SI (Selective Index, CC50/IC50)” value in series [5] is given as >50; in series [1] (WNV (BHK)) it was 5-25; in series [3] (DV (BHK)), 20-100. Moreover, the IC50 in series [5] is < 3 µM; in series [1] (setting [9]), 4 µM; in series [3] (text to FIG. 5A, BHK cells, DV serotype 2, 72 hours, read-out: IC50 against DV), 1 µM. In addition, the CC50 is 150 µM in series [6] and 20 to 100 µM in series [7].

Consider `OC[C@@H]1[C@@H](O)[C@H](O)[C@@H](O)CN1CCCCCC1CCCCC1` [OSL-1, N-pentylcyclohexyl-DNJ], for which, in series [4] (50 uM, FIG. 6A), the “inhibition of secretion of viral glycoproteins MHBs and LHBs (in words)” value is recorded as “lacked antiviral activity in this assay”.

Regarding `OC[C@@H]1[C@@H](O)[C@H](O)[C@@H](O)CN1CCCCCCC1CCCCC1` [OSL-2, N-hexylcyclohexyl-DNJ], the “antiviral activity against BVDV (in words)” value in series [5] is “appeared to be inactive against BVDV”.

`OC[C@@H]1[C@@H](O)[C@H](O)[C@@H](O)CN1CCCCCCC1(O)CCCCC1` [OSL-3, N-hexyl(1-hydroxycyclohexyl)-1,5-dideoxy-1,5-imino-D-glucitol]: the CC50 at 72 h in series [8] was > 300 µM.

Consider `OC[C@@H]1[C@@H](O)[C@H](O)[C@@H](O)CN1CCCCC1(O)CCCCC1` [OSL-12-31, N-butyl(1-hydroxycyclohexyl)-1,5-dideoxy-1,5-imino-D-glucitol], for which the CC50 at 72 h in series [8] was > 300 µM. Besides, the “toxicity in MDBK cells (in words)” value in series [6] (MTT, FIG. 4B) is reported as “less toxic in MDBK cultures than SP169”.

Regarding `OC[C@@H]1[C@@H](O)[C@H](O)[C@@H](O)CN1CCCCC1=CCCCC1` [OSL-12-51, N-butyl(1-cyclohexenyl)-DNJ], the “antiviral activity against BVDV (in words)” value in series [5] was “substantially less active against BVDV”.

Take `OC[C@@H]1[C@@H](O)[C@H](O)[C@@H](O)CN1CCCC1CCCCC1` [SP173, N-propylcyclohexyl-DNJ]: the “SI (Selective Index, CC50/IC50)” value is reported as >30 in series [5], >100 in series [1] (WNV (BHK)) and >33 in series [3] (DV (BHK)). The IC50 in series [5] is 5 µM; in series [1] (setting [9]) it was 1 µM; in series [1] (read-out: concentration inhibiting 50% of the WNV progeny produced, text to FIG. 3B, BHK cells, moi 0.05) it was 5 µM; in series [3] (DV (BHK), serotype 2, 72 hrs, read-out: IC50), 3 µM. The CC50 in series [6] is > 150 µM; in series [7], > 100 µM. Also, in series [1] (BHK cells, moi 0.05, FIG. 3B / 4D), the “antiviral activity against WNV (in words)” value is listed as “comparable to NNDNJ in activity”. Further, the “concentration without any detectable cell toxicity (highest concentration tested)” value in series [7] (BHK cells, measured in parallel to WNV assay, data not shown) stood at 100 µM.
